The subject of one data set is Candida krusei. The experiment in a line: conventional broth dilution in vitro antifungal test, Candida krusei. It is filed as cell-based. The note with it: 16 strains.
For a further data set, the system named is Candida glabrata. The experiment in a line: conventional broth dilution in vitro antifungal test, Candida glabrata. It is filed as cell-based. The note with it: 9 strains; for percentage of strains with MFCs ≤ 1 mcg/mL: Table R (MFCs); for PERCENTAGE OF STRAINS WITH MICs ≤ 1 MCG/ML: Table Q. In general terms: Dilution methods test growth across graded concentrations, often in twofold steps.

The subject of another data set is Cryptococcus neoformans. The experiment in a line: conventional broth dilution in vitro antifungal test, Cryptococcus neoformans. In kind it is cell-based. The note with it: 3 strains; for MIC 90: Table S.
The subject of another data set is Dermatophytes. As to the kind of experiment: conventional broth dilution in vitro antifungal test, dermatophytes. It is filed as cell-based, T. rubrum, T. mentagrophytes, and T. tonsurans. Particulars: 6 strains.
The test system of a further data set is Candida albicans. As to the kind of experiment: conventional broth dilution in vitro antifungal test, Candida albicans. The note with it: 26 strains; for percentage of strains with MFCs ≤ 1 mcg/mL: Table R (MFCs); for PERCENTAGE OF STRAINS WITH MICs ≤ 1 MCG/ML: Table Q. It is filed as cell-based.
The subject of data set [1] is Candida tropicalis & stellatoidea. As to the kind of experiment: conventional broth dilution in vitro antifungal test, Candida tropicalis & stellatoidea. It is filed as cell-based. The note with it: 5 strains.
Method: (§1) The in vitro antifungal activity tests were performed via conventional broth dilution methods in Sabouraud dextrose broth ("SDB") medium and Eagles Minimum Essential Medium ("EMEM") against a large number of fungi. Minimum Inhibitory Concentrations ("MICs") were measured after 24, 48 and 72 hour tests. In many cases, Minimum Fungicidial Concentrations ("MFCS") were measured after 48 and 72 hours.
A further data set deals with Aspergillus. As to the kind of experiment: conventional broth dilution in vitro antifungal test, Aspergillus. It is filed as cell-based, Aspergillus flavus, fumigatus and other species. Particulars: 37 strains.
Data set [2] deals with cytochrome P-450 liver drug metabolizing enzymes. The experiment in a line: induction of cytochrome P-450 liver drug metabolizing enzymes, in vivo rat model. Particulars: oral administration.
Data set [3] is described as follows: serum levels, half lives and tissue distribution following oral dosing. In kind it is in vivo. Particulars: mice, rats, dogs and monkeys, methyl cellulose formulation.

Method for Aspergillus: as §1
Method for Candida albicans: as §1
Method for Candida glabrata: as §1
Method for Candida krusei: as §1
Method for Cryptococcus neoformans: as §1

For the molecule `OC(Cn1cncn1)(Cn1cncn1)c1ccc(F)cc1F` [FLZ, fluconazole, reference compound], the “PERCENTAGE OF STRAINS WITH MICs ≤ 1 MCG/ML” value turned out to be 0% with Candida krusei (Table R (MFCs)); 0% in the data set with Cryptococcus neoformans (Table R (MFCs)); 0% in the data set on Dermatophytes (Table R (MFCs)); 100% in [1] (Table R (MFCs)); 0% with Aspergillus (Table R (MFCs)). Besides, the “percentage of strains with MFCs ≤ 1 mcg/mL” value was 0% in the data set with Candida glabrata and 100% in the data set on Candida albicans.
On to `CCC(C(C)O)n1ncn(-c2ccc(N3CCN(c4ccc(OCC5COC(Cn6cncn6)(c6ccc(F)cc6F)C5)cc4)CC3)cc2)c1=O` (centres unmarked) [drawing 29], for which the “PERCENTAGE OF STRAINS WITH MICs ≤ 1 MCG/ML” value came to 100% in the data set on Candida krusei (Table Q); 88% with Candida krusei (Table R (MFCs)); 22% with Candida glabrata; 100% in the data set on Cryptococcus neoformans (Table Q); 100% in the data set on Cryptococcus neoformans (Table R (MFCs)); 100% in the data set on Dermatophytes (Table Q). Moreover, the “PERCENTAGE OF STRAINS WITH MICs ≤ 1 MCG/ML” value in the data set on Dermatophytes (Table R (MFCs)) stood at 67%; with Candida albicans, 100%; in [1] (Table Q), 100%; in data set [1] (Table R (MFCs)) it was 100%; with Aspergillus (Table Q), 100%; in the data set on Aspergillus (Table R (MFCs)) it was 50%. Also, the results for the “percentage of strains with MFCs ≤ 1 mcg/mL” value in the data set on Candida glabrata and in the data set with Candida albicans were 22% and 100%, respectively. Also, the “MIC 90” value in the data set with Cryptococcus neoformans is “.05 MCG/ML”.
Regarding `CCC(C(C)O)n1ncn(-c2ccc(N3CCN(c4ccc(OCC5COC(Cn6cncn6)(c6ccc(F)cc6F)C5)cc4)CC3)cc2)c1=O` (centres unmarked) [drawing 28], the “induction of cytochrome P-450 liver drug metabolizing enzymes” value in data set [2] is given as “not inducers of various cytochrome P-450 liver drug metabolizing enzymes”. Moreover, in data set [3], the “serum levels compared to azoles of similar structure” value was “consistently higher serum levels”.
For the molecule `CCC(C(C)O)n1ncn(-c2ccc(N3CCN(c4ccc(OCC5COC(Cn6cncn6)(c6ccc(F)cc6F)C5)cc4)CC3)cc2)c1=O` (centres unmarked) [drawing 31], the “PERCENTAGE OF STRAINS WITH MICs ≤ 1 MCG/ML” value with Candida krusei (Table Q) came out at 100%; in the data set with Candida krusei (Table R (MFCs)), 100%; in the data set with Candida glabrata, 33%; in the data set on Cryptococcus neoformans (Table Q) it was 100%; with Cryptococcus neoformans (Table R (MFCs)) it was 100%; in the data set on Dermatophytes (Table Q) it was 100%. Moreover, the “PERCENTAGE OF STRAINS WITH MICs ≤ 1 MCG/ML” value in the data set with Dermatophytes (Table R (MFCs)) is given as 100%; in the data set on Candida albicans it was 100%; in [1] (Table Q), 100%; in data set [1] (Table R (MFCs)) it was 100%; with Aspergillus (Table Q), 100%; in the data set on Aspergillus (Table R (MFCs)) it was 89%. The “percentage of strains with MFCs ≤ 1 mcg/mL” value in the data set on Candida glabrata came to 22%; in the data set with Candida albicans it was 100%.
For `CCC(C(C)O)n1ncn(-c2ccc(N3CCN(c4ccc(OCC5COC(Cn6cncn6)(c6ccc(F)cc6F)C5)cc4)CC3)cc2)c1=O` (centres unmarked) [drawing 30], the “PERCENTAGE OF STRAINS WITH MICs ≤ 1 MCG/ML” value is on record as 100% in the data set on Candida krusei (Table Q); 94% with Candida krusei (Table R (MFCs)); 22% with Candida glabrata; 100% in the data set with Cryptococcus neoformans (Table Q); 100% in the data set with Cryptococcus neoformans (Table R (MFCs)); 100% with Dermatophytes (Table Q). The “PERCENTAGE OF STRAINS WITH MICs ≤ 1 MCG/ML” value is given as 83% in the data set on Dermatophytes (Table R (MFCs)); 100% in the data set on Candida albicans; 100% in data set [1] (Table Q); 100% in data set [1] (Table R (MFCs)); 100% with Aspergillus (Table Q); 62% in the data set with Aspergillus (Table R (MFCs)). Besides, the “percentage of strains with MFCs ≤ 1 mcg/mL” value stood at 22% with Candida glabrata and 100% in the data set with Candida albicans. Besides, in the data set on Cryptococcus neoformans, the “MIC 90” value is “.007 MCG/ML”.
